Data reported in patent publication US20040223932A1, “Adhesive treatment for acne” (Closure Medical Corporation, priority 2003, published 2004).

Assay: Observation of the monomer composition after preparation (clarity, solubility, premature polymerization)
Assay type: physicochemical
Details: 2 wt % in 2-octyl cyanoacrylate monomer
Description: The characteristics of the composition are observed at about one minute after preparation and later at least twenty-four hours after preparation.

solubility in the monomer (inferred from clear solution): soluble | premature polymerization of the monomer (up to at least twenty-four hours): does not cause premature polymerization
SMILES: O=C(O)c1ccccc1O [salicylic acid]
